Test results as given in paper PMC6968712, “SPA: a peptide antagonist that acts as a cell-penetrating peptide for drug delivery” (Drug Delivery, 2019).
Where a SMILES comes first, the peptide text is derived from it. Where no end group is shown, it is not given here. [ ]: non-standard residue; d: D form.

Key:
[1] = Enzymatic stability in serum; type: in vitro ADME; conditions: 15 μL 10 mM peptide in 285 μL 100% mice serum, 37 °C, 0–3 h, RP-HPLC, triplicate
Protocol: (§1) The enzymatic stability of SPA toward trypsin and mice serum was determined following a procedure reported in our previous study (Song et al., [2013]). A portion of 15 μL peptide stock solution (10 mM) was added to 285 μL trypsin solution (10 μg/mL) or 100% serum. Incubations were carried out at 37 °C for 0, 0.5, 1, 2 and 3 h in triplicate. A portion of 40 μL aliquots were diluted with 80 μL water/acetonitrile (60:40 v/v) containing 1% TFA and analyzed by RP-HPLC (Waters). The peptides were eluted using a liner gradient of 5–95% acetonitrile in 0.1% trifluoroacetic acid at a flow rate of 1 mL/min within 30 min on a C18 column (Waters XBridge Columns, 10 μM, 4.6*250 mm). The remaining full-length peptide concentration was normalized with respect to the initial concentration.

[2] = test system: trypsin; assay: Enzymatic stability toward trypsin; type: in vitro ADME; conditions: 15 μL 10 mM peptide in 285 μL trypsin solution (10 μg/mL), 37 °C, after incubation for 360 min as printed, RP-HPLC, triplicate
Protocol: as §1, with “Incubations were carried out at 37 °C for 0, 0.5, 1, 2 and 3 h in triplicate.” left out

[3] = test system: CHO cells; assay: Flow cytometry assay of cellular uptake; type: cell-based; conditions: 1 h
Protocol: CHO cells were treated with 10 μM FITC labeled peptides for 1 h, and then the cells were harvested and finally resuspended in PBS after washing twice with PBS. The fluorescence of cells was analyzed on a FACS Caliber. To explore the uptake mechanism of SPA, CHO cells were preincubated at 4 °C and then treated with 10 μM FITC-labeled SPA at 4 °C or 37 °C for 1 h. In experiments with chloroquine, CHO cells were incubated with FITC-labeled SPA and 100 μM chloroquine at 37 °C for 1 h. In experiments with endocytosis inhibitor, cells were pretreated with 10 μg/mL chlorpromazine, 50 μM amiloride or 5 mM methyl-β-cyclodextrin at 37 °C for 0.5 h and then treated with 10 μM FITC-labeled SPA for 1 h. Cells were harvested and analyzed by a FACS Caliber (BD).

[4] = RP-HPLC retention time as measure of peptide hydrophobicity; type: physicochemical; conditions: Table S1; chromatographic, C18 (Waters XBridge, 4.6*250 mm), linear gradient 5–95% acetonitrile in 0.1% trifluoroacetic acid within 30 min, 1 mL/min
Protocol: Purity analysis was checked by analytical RP-HPLC (Waters), and the peptides were eluted using a liner gradient of 5–95% acetonitrile in 0.1% trifluoroacetic acid at a flow rate of 1 mL/min within 30 min on a C18 column (Waters XBridge Columns, 10 μM, 4.6*250 mm). The retention time of each peptide was determined when the peak was at its maximum height.

[5] = test system: CHO cells; assay: MTT cytotoxicity assay of SPA (24 h); type: cell-based; conditions: various concentrations
Protocol: Cells were treated with SPA at various concentrations for 24 h. The cytotoxicity of SPA was determined by MTT assay. The absorbance was determined using microplate reader (Thermo scientific) at 570 nm.

[6] = test system: Erythrocytes; assay: Hemolysis assay; type: cell-based; conditions: mice erythrocytes, even at 200 μM, 1 h, 37 °C
Protocol: Erythrocytes were obtained from freshly collected mice blood and resuspended in PBS to 4% (V/V). After 100 μL the erythrocyte suspension being seeded in 96-well plate, the cells were incubated with 100 μL peptides solution at different concentrations for 1 h at 37 °C. The plates were centrifuged at 1000 g for 10 min and the released hemoglobin was determined using microplate reader (Thermo scientific) at 450 nm. PBS and 0.1% Triton X-100 were used as agents for 0 and 100% hemolysis, respectively.

[7] = test system: CHO cells; assay: MTT antiproliferative assay of SPA-CPT conjugate; type: cell-based; conditions: treated 1 h, washed, cultured 72 h
Protocol: CHO, MDA-MB-231and U251 cells were seeded at 5 × 10^3 cells/well in 96-well plates 24 h before treatment, respectively. […] After washing with medium to remove the remaining agents, the cells were cultured for 72 h and the antiproliferative effects of the relevant agents were determined by the MTT assay.

[8] = test system: CHO cells; assay: LDH leakage assay; type: cell-based; conditions: 1 h, 100% = 0.2% Triton X-100
Protocol: The LDH leakage was measured using the Cytotoxicity Detection Kit (Roche). CHO cells were seeded at 1 × 10^4 cells/well in 96-well plate 24 h before treatment. After treatment with SPA at various concentrations for 1 h, 40 μL medium was transferred to a 96-well plate and incubated for 15 min with 40 μL reaction mixture, followed by 20 μL stop solution. […] was measured using microplate reader (Thermo scientific) at 490 nm. Untreated cells were defined as no leakage and 100% leakage was defined as total LDH release by lysing cells in 0.2% Triton X-100.

RPKPWQWFWLL-NH2 [L-SPA]
stability in serum (remaining full-length peptide) [1]: SPA exhibited significantly greater stability in serum than L-SPA
stability against trypsin (remaining full-length peptide) [2]: almost completely degraded

FITC-AHX-rPKPwQwFwLL-NH2 [FITC-SPA, SPA labeled with FITC at the N-terminus via an aminohexanoic acid spacer]
mean fluorescence on cotreatment with chloroquine ([3]; 10 μM FITC-labeled SPA with 100 μM chloroquine, 37 °C): significantly increased
retention time [4]: 21.2 min

CC(C)C[C@H](NC(=O)[C@H](CC(C)C)NC(=O)[C@@H](Cc1c[nH]c2ccccc12)NC(=O)[C@H](Cc1ccccc1)NC(=O)[C@@H](Cc1c[nH]c2ccccc12)NC(=O)[C@H](CCC(N)=O)NC(=O)[C@@H](Cc1c[nH]c2ccccc12)NC(=O)[C@@H]1CCCN1C(=O)[C@H](CCCCN)NC(=O)[C@@H]1CCCN1C(=O)[C@H](N)CCCN=C(N)N)C(N)=O [SPA, [D-Arg^1, D-Trp^5,7,9, Leu^11]Substance P] (H-[dR]PKP[dW]Q[dW]F[dW]LL-NH2)
stability in serum (remaining full-length peptide) [1]: significantly greater stability in serum than L-SPA
cytotoxicity (MTT) [5]: low cytotoxicity
stability against trypsin (remaining full-length peptide) [2]: not hydrolyzed
hemolytic activity [6]: low hemolytic activity
cytotoxicity / antiproliferative effect (MTT) [7]: no notable cytotoxicity
LDH leakage ([8]; 160 μM): 35%

CC[C@H](C)[C@H](NC(=O)CN)C(=O)NCC(=O)N[C@@H](C)C(=O)N[C@H](C(=O)N[C@@H](CC(C)C)C(=O)N[C@@H](CCCCN)C(=O)N[C@H](C(=O)N[C@@H](CC(C)C)C(=O)N[C@H](C(=O)N[C@H](C(=O)NCC(=O)N[C@@H](CC(C)C)C(=O)N1CCC[C@H]1C(=O)N[C@@H](C)C(=O)N[C@@H](CC(C)C)C(=O)N[C@H](C(=O)N[C@@H](CO)C(=O)N[C@@H](Cc1c[nH]c2ccccc12)C(=O)N[C@H](C(=O)N[C@@H](CCCCN)C(=O)N[C@@H](CCCNC(=N)N)C(=O)N[C@@H](CCCCN)C(=O)N[C@@H](CCCNC(=N)N)C(=O)N[C@@H](CCC(N)=O)C(=O)N[C@@H](CCC(N)=O)C(N)=O)[C@@H](C)CC)[C@@H](C)CC)[C@@H](C)O)[C@@H](C)O)C(C)C)C(C)C [melittin, reference compound]
LDH leakage ([8]; 50 μM (positive control)): ~100%

FITC-AHX-YGRKKRRQRRR-NH2 [FITC-TAT, FITC-labeled cell-penetrating peptide TAT used as uptake comparator, reference compound]
cellular uptake efficiency (mean fluorescence intensity) ([3]; 10 μM FITC labeled peptides, flow cytometry): cellular uptake efficiency of SPA was lower than that of TAT
retention time [4]: 16.0 min
